According to ChEMBL document CHEMBL4715829, “Heterodimeric Rifampicin-Tobramycin conjugates break intrinsic resistance of Pseudomonas aeruginosa to doxycycline and chloramphenicol in vitro and in a Galleria mellonella in vivo model” (Eur J Med Chem, 2019):

Key:
Pseudomonas aeruginosa [1] = test: Antibacterial activity against Pseudomonas aeruginosa PAO1 assessed as reduction in bacterial growth by measuring meropenem MIC at <=10 uM in presence of meropenem incubated for 18 hrs by broth microdilution assay based checkerboard assay (reference value: 1 microg/ml); type: functional; details: dose microM <=10
Pseudomonas aeruginosa [2] = test: Antibacterial activity against Pseudomonas aeruginosa PAO1 assessed as fractional inhibitory concentration index in presence of Aztreonam incubated for 18 hrs by broth microdilution assay based checkerboard assay; type: functional
[3] = tested on: Stenotrophomonas maltophilia; test: Antibacterial activity against Stenotrophomonas maltophilia CAN-ICU 62584 assessed as reduction in bacterial growth incubated for 18 hrs by broth microdilution assay; type: functional
Pseudomonas aeruginosa [4] = test: Antibacterial activity against Pseudomonas aeruginosa 260-97103 assessed as fractional inhibitory concentration index in presence of doxycycline incubated for 18 hrs by broth microdilution assay; type: functional
Streptococcus pneumoniae = test: Antibacterial activity against Streptococcus pneumoniae ATCC 49619 assessed as reduction in bacterial growth incubated for 18 hrs by broth microdilution assay; type: functional
Pseudomonas aeruginosa [5] = test: Antibacterial activity against Pseudomonas aeruginosa PAO1 assessed as reduction in bacterial growth by measuring aztreonam MIC at <=10 uM in presence of aztreonam incubated for 18 hrs by broth microdilution assay based checkerboard assay (reference value: 4 microg/ml); type: functional; details: dose microM <=10
Escherichia coli [6] = test: Antibacterial activity against Escherichia coli CAN-ICU 63074 (AMK 32) assessed as reduction in bacterial growth incubated for 18 hrs by broth microdilution assay; type: functional
Pseudomonas aeruginosa [7] = test: Antibacterial activity against Pseudomonas aeruginosa PAO1 assessed as reduction in bacterial growth by measuring colistin MIC at <=10 uM in presence of colistin incubated for 18 hrs by broth microdilution assay based checkerboard assay (reference value: 1 microg/ml); type: functional; details: dose microM <=10
Pseudomonas aeruginosa [8] = test: Antibacterial activity against Pseudomonas aeruginosa PAO1 assessed as fractional inhibitory concentration index in presence of Novobiocin incubated for 18 hrs by broth microdilution assay based checkerboard assay; type: functional
Pseudomonas aeruginosa [9] = test: Antibacterial activity against Pseudomonas aeruginosa 100036 assessed as fractional inhibitory concentration index in presence of doxycycline incubated for 18 hrs by broth microdilution assay; type: functional
Pseudomonas aeruginosa [10] = test: Antibacterial activity against Pseudomonas aeruginosa 264-101354 assessed as reduction in bacterial growth incubated for 18 hrs by broth microdilution assay; type: functional
Pseudomonas aeruginosa [11] = test: Antibacterial activity against Pseudomonas aeruginosa PAO1 assessed as reduction in bacterial growth by measuring novobiocin MIC at <=10 uM in presence of novobiocin incubated for 18 hrs by broth microdilution assay based checkerboard assay (reference value: 512 microg/ml); type: functional; details: dose microM <=10
Pseudomonas aeruginosa [12] = test: Antibacterial activity against Pseudomonas aeruginosa PAO1 assessed as fractional inhibitory concentration index in presence of Vancomycin incubated for 18 hrs by broth microdilution assay based checkerboard assay; type: functional
Pseudomonas aeruginosa [13] = test: Antibacterial activity against Pseudomonas aeruginosa PAO1 assessed as fractional inhibitory concentration index in presence of Linezolid incubated for 18 hrs by broth microdilution assay based checkerboard assay; type: functional
Pseudomonas aeruginosa [14] = test: Antibacterial activity against Pseudomonas aeruginosa ATCC 27853 assessed as reduction in bacterial growth incubated for 18 hrs by broth microdilution assay; type: functional
Pseudomonas aeruginosa [15] = test: Antibacterial activity against Pseudomonas aeruginosa 91433 assessed as fractional inhibitory concentration index in presence of doxycycline incubated for 18 hrs by broth microdilution assay; type: functional
Pseudomonas aeruginosa [16] = test: Antibacterial activity against Pseudomonas aeruginosa 262-101856 assessed as reduction in bacterial growth incubated for 18 hrs by broth microdilution assay; type: functional
Pseudomonas aeruginosa [17] = test: Antibacterial activity against Pseudomonas aeruginosa PAO1 assessed as fractional inhibitory concentration index in presence of Trimethoprim incubated for 18 hrs by broth microdilution assay based checkerboard assay; type: functional
Pseudomonas aeruginosa [18] = test: Antibacterial activity against Pseudomonas aeruginosa PAO1 assessed as fractional inhibitory concentration index in presence of Meropenem incubated for 18 hrs by broth microdilution assay based checkerboard assay; type: functional
Pseudomonas aeruginosa [19] = test: Antibacterial activity against Pseudomonas aeruginosa 750 harboring efflux mutant assessed as reduction in bacterial growth incubated for 18 hrs by broth microdilution assay; type: functional
Pseudomonas aeruginosa [20] = test: Antibacterial activity against Pseudomonas aeruginosa PAO1 assessed as reduction in bacterial growth by measuring fosfomycin MIC at <=[…] uM in presence of fosfomycin incubated for 18 hrs by broth microdilution assay based checkerboard assay (reference value: […] microg/ml); type: functional; details: dose microM <=10
Pseudomonas aeruginosa [21] = test: Antibacterial activity against Pseudomonas aeruginosa 91433 assessed as reduction in bacterial growth incubated for 18 hrs by broth microdilution assay; type: functional
Pseudomonas aeruginosa [22] = test: Antibacterial activity against Pseudomonas aeruginosa 101243 assessed as fractional inhibitory concentration index in presence of doxycycline incubated for 18 hrs by broth microdilution assay; type: functional
Pseudomonas aeruginosa [23] = test: Antibacterial activity against Pseudomonas aeruginosa 262-101856 assessed as fractional inhibitory concentration index in presence of doxycycline incubated for 18 hrs by broth microdilution assay; type: functional
Escherichia coli [24] = test: Antibacterial activity against Escherichia coli ATCC 25922 assessed as reduction in bacterial growth incubated for 18 hrs by broth microdilution assay; type: functional
Escherichia coli [25] = test: Antibacterial activity against gentamicin-resistant Escherichia coli CAN-ICU 61714 assessed as reduction in bacterial growth incubated for 18 hrs by broth microdilution assay; type: functional
Staphylococcus aureus = test: Antibacterial activity against methicillin-resistance Staphylococcus aureus ATCC 33592 assessed as reduction in bacterial growth incubated for 18 hrs by broth microdilution assay; type: functional
Enterococcus faecalis = test: Antibacterial activity against Enterococcus faecalis ATCC 29212 assessed as reduction in bacterial growth incubated for 18 hrs by broth microdilution assay; type: functional
Pseudomonas aeruginosa [26] = test: Antibacterial activity against Pseudomonas aeruginosa PAO1 assessed as reduction in bacterial growth by measuring moxifloxacin MIC at <=10 uM in presence of moxifloxacin incubated for 18 hrs by broth microdilution assay based checkerboard assay (reference value: 1 microg/ml); type: functional; details: dose microM <=10
Pseudomonas aeruginosa [27] = test: Antibacterial activity against Pseudomonas aeruginosa PAO1 assessed as reduction in bacterial growth by measuring doxycycline MIC at <=[…] uM in presence of doxycycline incubated for 18 hrs by broth microdilution assay based checkerboard assay (reference value: […] microg/ml); type: functional; details: dose microM <=10
Pseudomonas aeruginosa [28] = test: Antibacterial activity against Pseudomonas aeruginosa PAO1 assessed as fractional inhibitory concentration index in presence of Rifampicin incubated for 18 hrs by broth microdilution assay based checkerboard assay; type: functional
Pseudomonas aeruginosa [29] = test: Antibacterial activity against Pseudomonas aeruginosa PAO1 assessed as reduction in bacterial growth by measuring trimethoprim MIC at <=10 uM in presence of trimethoprim incubated for 18 hrs by broth microdilution assay based checkerboard assay (reference value: 64 microg/ml); type: functional; details: dose microM <=10
[30] = Cytotoxicity against human HepG2 cells assessed as cell viability at <10 uM incubated for 48 hrs prestoblue assay; type: cell-based; details: read-out: Activity
Pseudomonas aeruginosa [31] = test: Antibacterial activity against Pseudomonas aeruginosa PAO1 assessed as fractional inhibitory concentration index in presence of Minocycline incubated for 18 hrs by broth microdilution assay based checkerboard assay; type: functional
Pseudomonas aeruginosa [32] = test: Antibacterial activity against Pseudomonas aeruginosa 264-101354 assessed as fractional inhibitory concentration index in presence of chloramphenicol incubated for 18 hrs by broth microdilution assay; type: functional
Pseudomonas aeruginosa [33] = test: Antibacterial activity against Pseudomonas aeruginosa 100036 assessed as reduction in bacterial growth incubated for 18 hrs by broth microdilution assay; type: functional
Pseudomonas aeruginosa [34] = test: Antibacterial activity against Pseudomonas aeruginosa PAO1 assessed as fractional inhibitory concentration index in presence of Tobramycin incubated for 18 hrs by broth microdilution assay based checkerboard assay; type: functional

Structure (SMILES): CO[C@H]1/C=C/O[C@@]2(C)Oc3c(C)c(O)c4c(O)c(c(/C=N/N5CCN(Cc6cn(CCCCCCCCCCCCO[C@@H]7[C@@H](O[C@H]8O[C@H](CO)[C@@H](O)[C@H](N)[C@H]8O)[C@H](N)C[C@H](N)[C@H]7O[C@H]7O[C@H](CN)[C@@H](O)C[C@H]7N)nn6)CC5)c(O)c4c3C2=O)NC(=O)/C(C)=C\C=C\[C@H](C)[C@H](O)[C@@H](C)[C@@H](O)[C@@H](C)[C@H](OC(C)=O)[C@@H]1C.O=C(O)C(F)(F)F.O=C(O)C(F)(F)F.O=C(O)C(F)(F)F.O=C(O)C(F)(F)F.O=C(O)C(F)(F)F
- MIC (Pseudomonas aeruginosa [1]): 1 µg/mL
- fractional inhibitory concentration index (FICI) (Pseudomonas aeruginosa [2]): 1.03
- MIC [3]: > 32 µg/mL
- fractional inhibitory concentration index (FICI) (Pseudomonas aeruginosa [4]): <0.133
- MIC (Streptococcus pneumoniae): 8 µg/mL
- MIC (Pseudomonas aeruginosa [5]): 4 µg/mL
- MIC (Escherichia coli [6]): 32 µg/mL
- MIC (Pseudomonas aeruginosa [7]): 0.25 µg/mL
- fractional inhibitory concentration index (FICI) (Pseudomonas aeruginosa [8]): 0.28
- fractional inhibitory concentration index (FICI) (Pseudomonas aeruginosa [9]): 0.07
- MIC (Pseudomonas aeruginosa [10]): 256 µg/mL
- MIC (Pseudomonas aeruginosa [11]): 128 µg/mL
- fractional inhibitory concentration index (FICI) (Pseudomonas aeruginosa [12]): 0.53
- fractional inhibitory concentration index (FICI) (Pseudomonas aeruginosa [13]): 0.28
- MIC (Pseudomonas aeruginosa [14]): > 32 µg/mL
- fractional inhibitory concentration index (FICI) (Pseudomonas aeruginosa [15]): 0.133
- MIC (Pseudomonas aeruginosa [16]): > 256 µg/mL
- fractional inhibitory concentration index (FICI) (Pseudomonas aeruginosa [17]): 0.28
- fractional inhibitory concentration index (FICI) (Pseudomonas aeruginosa [18]): 1.03
- MIC (Pseudomonas aeruginosa [19]): 128 µg/mL
- MIC (Pseudomonas aeruginosa [20]): 4 µg/mL
- MIC (Pseudomonas aeruginosa [21]): > 128 µg/mL
- fractional inhibitory concentration index (FICI) (Pseudomonas aeruginosa [22]): 0.094
- fractional inhibitory concentration index (FICI) (Pseudomonas aeruginosa [23]): <0.07
- MIC (Escherichia coli [24]): 16 µg/mL
- MIC (Escherichia coli [25]): > 32 µg/mL
- MIC (Staphylococcus aureus): > 32 µg/mL
- MIC (Enterococcus faecalis): > 32 µg/mL
- MIC (Pseudomonas aeruginosa [26]): 1 µg/mL
- MIC (Pseudomonas aeruginosa [27]): 1 µg/mL
- fractional inhibitory concentration index (FICI) (Pseudomonas aeruginosa [28]): 0.15
- MIC (Pseudomonas aeruginosa [29]): 16 µg/mL
- viability at 48 h [30]: > 90%
- fractional inhibitory concentration index (FICI) (Pseudomonas aeruginosa [31]): 0.28
- fractional inhibitory concentration index (FICI) (Pseudomonas aeruginosa [32]): 0.063
- MIC (Pseudomonas aeruginosa [33]): 256 µg/mL
- fractional inhibitory concentration index (FICI) (Pseudomonas aeruginosa [34]): 1.03
